Assay results reported in US12441691B2 (Cytokinetics, Inc., priority 2020, dated 2025).

Test system: rabbit skeletal myofibrils (fast skeletal myofibrils)
Assay: Activation of fast skeletal myofibrils (PUMA assay, AC1.4)
Type: biochemical
Settings: calcium at pCa25, AC1.4 = concentration at which the compound increased the enzymatic activity
How it was run: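 In 12 mM PIPES pH 6.8 with 2 mM MgCl2 and 1 mM DTT, Triton-washed rabbit skeletal myofibrils were run at the pCa25 calcium level. Myosin-made ADP was recycled through a PK/LDH coupled system; NADH loss read at 340 nm.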

Row | SMILES | AC1.4 [µM]
1 | CC[C@H](C)[C@H]1C(=O)Nc2ccccc2CN1C(=O)c1c[nH]nn1 [Compound 153, (S)-3-((S)-sec-butyl)-4-(1H-1,2,3-triazole-4-carbonyl)-1,3,4,5-tetrahydro-2H-benzo[e][1,4]diazepin-2-one] | 0.09
2 | CC[C@H](C)[C@H]1C(=O)Nc2ccccc2CN1C(=O)c1cccc(=O)n1C [Compound 154, (S)-3-((S)-sec-butyl)-4-(1-methyl-6-oxo-1,6-dihydropyridine-2-carbonyl)-1,3,4,5-tetrahydro-2H-benzo[e][1,4]diazepin-2-one] | 0.65
3 | CC[C@H](C)[C@H]1C(=O)Nc2ccccc2CN1C(=O)c1ccc(=O)[nH]c1 [Compound 155, (S)-3-((S)-sec-butyl)-4-(6-oxo-1,6-dihydropyridine-3-carbonyl)-1,3,4,5-tetrahydro-2H-benzo[e][1,4]diazepin-2-one] | 0.54
4 | CC[C@H](C)[C@H]1C(=O)Nc2ccccc2CN1C(=O)c1ccc(=O)n(C)c1 [Compound 156, (S)-3-((S)-sec-butyl)-4-(1-methyl-6-oxo-1,6-dihydropyridine-3-carbonyl)-1,3,4,5-tetrahydro-2H-benzo[e][1,4]diazepin-2-one] | 0.90
5 | CC[C@H](C)[C@H]1C(=O)Nc2ccccc2CN1C(=O)c1cnn(C)n1 [Compound 157, (S)-3-((S)-sec-butyl)-4-(2-methyl-2H-1,2,3-triazole-4-carbonyl)-1,3,4,5-tetrahydro-2H-benzo[e][1,4]diazepin-2-one] | 0.11
6 | CC[C@H](C)[C@H]1C(=O)Nc2ccccc2CN1C(=O)c1ccc(C(N)=O)nc1 [Compound 158, 5-((S)-3-((S)-sec-butyl)-2-oxo-2,3,4,5-tetrahydro-1H-benzo[e][1,4]diazepine-4-carbonyl)picolinamide] | 0.44
7 | CC[C@H](C)[C@H]1C(=O)Nc2ccccc2CN1C(=O)c1cnnn1C [Compound 159, (S)-3-((S)-sec-butyl)-4-(1-methyl-1H-1,2,3-triazole-5-carbonyl)-1,3,4,5-tetrahydro-2H-benzo[e][1,4]diazepin-2-one] | 0.59
8 | CC[C@H](C)[C@H]1C(=O)Nc2ccccc2CN1C(=O)c1ncc[nH]1 [Compound 160, (S)-3-((S)-sec-butyl)-4-(1H-imidazole-2-carbonyl)-1,3,4,5-tetrahydro-2H-benzo[e][1,4]diazepin-2-one] | 0.16
9 | CC[C@H](C)[C@H]1C(=O)Nc2ccccc2CN1C(=O)C1CCC(=O)N1 (stereo partly drawn) [Compound 161, (3S)-3-((S)-sec-butyl)-4-(5-oxopyrrolidine-2-carbonyl)-1,3,4,5-tetrahydro-2H-benzo[e][1,4]diazepin-2-one] | 2.25
10 | CC[C@H](C)[C@H]1C(=O)Nc2ccccc2CN1C(=O)c1cncc(C(N)=O)c1 [Compound 162, 5-((S)-3-((S)-sec-butyl)-2-oxo-2,3,4,5-tetrahydro-1H-benzo[e][1,4]diazepine-4-carbonyl)nicotinamide] | 0.11
11 | CCOC(=O)c1ccc(C(=O)N2Cc3ccccc3NC(=O)[C@@H]2[C@@H](C)CC)[nH]1 [Compound 163, ethyl 5-((S)-3-((S)-sec-butyl)-2-oxo-2,3,4,5-tetrahydro-1H-benzo[e][1,4]diazepine-4-carbonyl)-1H-pyrrole-2-carboxylate] | 0.05
12 | CC[C@H](C)[C@H]1C(=O)Nc2ccccc2CN1C(=O)c1cnn(C[C@@H](C)O)c1 [Compound 164, (S)-3-((S)-sec-butyl)-4-(1-((R)-2-hydroxypropyl)-1H-pyrazole-4-carbonyl)-1,3,4,5-tetrahydro-2H-benzo[e][1,4]diazepin-2-one] | 0.10
13 | CC[C@H](C)[C@H]1C(=O)Nc2ccccc2CN1C(=O)c1ccc2c(c1)NC(=O)C2 [Compound 165, (S)-3-((S)-sec-butyl)-4-(2-oxoindoline-6-carbonyl)-1,3,4,5-tetrahydro-2H-benzo[e][1,4]diazepin-2-one] | 0.14
14 | CC[C@H](C)[C@H]1C(=O)Nc2ccccc2CN1C(=O)c1ccc(C(=O)O)[nH]1 [Compound 166, 5-((S)-3-((S)-sec-butyl)-2-oxo-2,3,4,5-tetrahydro-1H-benzo[e][1,4]diazepine-4-carbonyl)-1H-pyrrole-2-carboxylic acid] | 0.45
15 | CC[C@H](C)[C@H]1C(=O)Nc2ccccc2CN1C(=O)c1ccc2c(c1)CC(=O)N2 [Compound 167, (S)-3-((S)-sec-butyl)-4-(2-oxoindoline-5-carbonyl)-1,3,4,5-tetrahydro-2H-benzo[e][1,4]diazepin-2-one] | 0.05
16 | CC[C@H](C)[C@H]1C(=O)Nc2ccccc2CN1C(=O)c1cc2nc(C(N)=O)ccc2[nH]1 [Compound 168, 2-((S)-3-((S)-sec-butyl)-2-oxo-2,3,4,5-tetrahydro-1H-benzo[e][1,4]diazepine-4-carbonyl)-1H-pyrrolo[3,2-b]pyridine-5-carboxamide] | 0.04

Row | SMILES | AC1.4 [µM]
17 | CC[C@H](C)[C@H]1C(=O)Nc2ccccc2CN1C(=O)c1ccc2[nH]c(C(N)=O)cc2n1 [Compound 169, 5-((S)-3-((S)-sec-butyl)-2-oxo-2,3,4,5-tetrahydro-1H-benzo[e][1,4]diazepine-4-carbonyl)-1H-pyrrolo[3,2-b]pyridine-2-carboxamide] | 0.06
18 | CC[C@H](C)[C@H]1C(=O)Nc2ccccc2CN1C(=O)c1ccc(=O)n(CCO)c1 [Compound 170, (S)-3-((S)-sec-butyl)-4-(1-(2-hydroxyethyl)-6-oxo-1,6-dihydropyridine-3-carbonyl)-1,3,4,5-tetrahydro-2H-benzo[e][1,4]diazepin-2-one] | 0.79
19 | CC[C@H](C)[C@H]1C(=O)Nc2ccccc2CN1C(=O)c1nc2cccnc2[nH]1 [Compound 171, (S)-3-((S)-sec-butyl)-4-(3H-imidazo[4,5-b]pyridine-2-carbonyl)-1,3,4,5-tetrahydro-2H-benzo[e][1,4]diazepin-2-one] | 0.03
20 | CC[C@H](C)[C@H]1C(=O)Nc2ccccc2CN1C(=O)c1ccn(C)c(=O)c1 [Compound 172, (S)-3-((S)-sec-butyl)-4-(1-methyl-2-oxo-1,2-dihydropyridine-4-carbonyl)-1,3,4,5-tetrahydro-2H-benzo[e][1,4]diazepin-2-one] | 0.63
21 | CC[C@H](C)[C@H]1C(=O)Nc2ccccc2CN1C(=O)c1cnn(CC(N)=O)c1 [Compound 173, 2-(4-((S)-3-((S)-sec-butyl)-2-oxo-2,3,4,5-tetrahydro-1H-benzo[e][1,4]diazepine-4-carbonyl)-1H-pyrazol-1-yl)acetamide] | 0.22
22 | CC[C@H](C)[C@H]1C(=O)Nc2ccccc2CN1C(=O)c1ccc(C(=O)NCCO)[nH]1 [Compound 174, 5-((S)-3-((S)-sec-butyl)-2-oxo-2,3,4,5-tetrahydro-1H-benzo[e][1,4]diazepine-4-carbonyl)-N-(2-hydroxyethyl)-1H-pyrrole-2-carboxamide] | 0.03
23 | CC[C@H](C)[C@H]1C(=O)Nc2ccccc2CN1C(=O)c1ccc(C(=O)NCC(O)CO)[nH]1 (stereo partly drawn) [Compound 175, 5-((S)-3-((S)-sec-butyl)-2-oxo-2,3,4,5-tetrahydro-1H-benzo[e][1,4]diazepine-4-carbonyl)-N-(2,3-dihydroxypropyl)-1H-pyrrole-2-carboxamide] | 0.04
24 | CC[C@H](C)[C@H]1C(=O)Nc2ccccc2CN1C(=O)c1cc2c(=O)[nH]ncc2[nH]1 [Compound 176, (S)-3-((S)-sec-butyl)-4-(4-oxo-4,5-dihydro-1H-pyrrolo[2,3-d]pyridazine-2-carbonyl)-1,3,4,5-tetrahydro-2H-benzo[e][1,4]diazepin-2-one] | 0.05
25 | CC[C@H](C)[C@H]1C(=O)Nc2ccccc2CN1C(=O)[C@@H]1CCCN1 [Compound 177, (S)-4-(L-prolyl)-3-((S)-sec-butyl)-1,3,4,5-tetrahydro-2H-benzo[e][1,4]diazepin-2-one] | 2.64
26 | CC[C@H](C)[C@H]1C(=O)Nc2ccccc2CN1C(=O)[C@H]1CCCN1 [Compound 178, (S)-4-(D-prolyl)-3-((S)-sec-butyl)-1,3,4,5-tetrahydro-2H-benzo[e][1,4]diazepin-2-one] | 3.37
27 | CC[C@H](C)[C@H]1C(=O)Nc2ccccc2CN1C(=O)c1cn(C)nc1CCO [Compound 179, (S)-3-((S)-sec-butyl)-4-(3-(2-hydroxyethyl)-1-methyl-1H-pyrazole-4-carbonyl)-1,3,4,5-tetrahydro-2H-benzo[e][1,4]diazepin-2-one] | 2.27
28 | CC[C@H](C)[C@H]1C(=O)Nc2ccccc2CN1C(=O)c1ccc(C(=O)N2CC(O)C2)[nH]1 [Compound 180, (S)-3-((S)-sec-butyl)-4-(5-(3-hydroxyazetidine-1-carbonyl)-1H-pyrrole-2-carbonyl)-1,3,4,5-tetrahydro-2H-benzo[e][1,4]diazepin-2-one] | 0.10
29 | CC[C@H](C)[C@H]1C(=O)Nc2ccccc2CN1C(=O)c1cc2nccnc2[nH]1 [Compound 181, (S)-3-((S)-sec-butyl)-4-(5H-pyrrolo[2,3-b]pyrazine-6-carbonyl)-1,3,4,5-tetrahydro-2H-benzo[e][1,4]diazepin-2-one] | 0.04
30 | CC[C@H](C)[C@H]1C(=O)Nc2ccccc2CN1C(=O)c1cnn(CCO)c1N [Compound 182, (S)-4-(5-amino-1-(2-hydroxyethyl)-1H-pyrazole-4-carbonyl)-3-((S)-sec-butyl)-1,3,4,5-tetrahydro-2H-benzo[e][1,4]diazepin-2-one] | 0.07
31 | CC[C@H](C)[C@H]1C(=O)Nc2ccccc2CN1C(=O)CCN1CC[C@H](O)C1 [Compound 184, (S)-3-((S)-sec-butyl)-4-(3-((S)-3-hydroxypyrrolidin-1-yl)propanoyl)-1,3,4,5-tetrahydro-2H-benzo[e][1,4]diazepin-2-one] | 0.55
32 | CC[C@H](C)[C@H]1C(=O)Nc2ccccc2CN1C(=O)CCN1CC[C@@H](O)C1 [Compound 185, (S)-3-((S)-sec-butyl)-4-(3-((R)-3-hydroxypyrrolidin-1-yl)propanoyl)-1,3,4,5-tetrahydro-2H-benzo[e][1,4]diazepin-2-one] | 0.92
